Measured values as given in ChEMBL document CHEMBL1201862, “PubChem BioAssay data set” (2004).
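96-well plates; 48 h exposure; 5 concentrations. Endpoints by linear interpolation between flanking doses. Not reached: highest tested concentration assigned. The concentration for 50% growth inhibition is given as GI50.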 Active and inactive are the calls of the source. Rule as the data show it: active = GI50 up to about 1.1 µM and inactive = higher.

Key:
Assay in all cases: DTP human tumour cell line panel, 48 h
786-0 = tested on: 786-0
ACHN = tested on: ACHN
COLO 205 = tested on: COLO 205
DU-145 = tested on: DU-145
EKVX = tested on: EKVX
HCT-116 = tested on: HCT-116
HCT-15 = tested on: HCT-15
HT-29 = tested on: HT-29
Hs-578T = tested on: Hs-578T
MDA-N = tested on: MDA-N
OVCAR-5 = tested on: OVCAR-5
PC-3 = tested on: PC-3
RPMI-8226 = tested on: RPMI-8226
SK-MEL-28 = tested on: SK-MEL-28
SK-MEL-5 = tested on: SK-MEL-5
SN12C = tested on: SN12C
SNB-75 = tested on: SNB-75
SR = tested on: SR
SW-620 = tested on: SW-620
HOP-18 = tested on: HOP-18

| Compound | GI50 (786-0) | GI50 (ACHN) | GI50 (COLO 205) | GI50 (DU-145) | GI50 (EKVX) | GI50 (HCT-116) | GI50 (HCT-15) | GI50 (HT-29) | GI50 (Hs-578T) | GI50 (MDA-N) | GI50 (OVCAR-5) | GI50 (PC-3) | GI50 (RPMI-8226) | GI50 (SK-MEL-28) | GI50 (SK-MEL-5) | GI50 (SN12C) | GI50 (SNB-75) | GI50 (SR) | GI50 (SW-620) | GI50 (HOP-18) |
| --- | --- | --- | --- | --- | --- | --- | --- | --- | --- | --- | --- | --- | --- | --- | --- | --- | --- | --- | --- | --- |
| CC(CC[C@@]1(O)OC2C[C@H]3[C@@H]4CC[C@H]5CC(OC6OC(CO)C(OC7OC(CO)C(O)C(OC8OCC(O)C(O)C8O)C7OC7OC(CO)C(O)C(O)C7O)C(O)C6O)[C@H](O)CC5(C)[C@H]4CCC3(C)C2[C@@H]1C)COC1OC(CO)C(O)C(O)C1O (stereo partly specified) | 3.43 µM (inactive) | 2.09 µM (inactive) | 13 µM (inactive) | 3.09 µM (inactive) | 2.38 µM (inactive) | 3.67 µM (inactive) | 20.9 µM | 11 µM (inactive) | 4.73 µM (inactive) | 15.4 µM (inactive) | 11.7 µM (inactive) | 10.3 µM (inactive) | 19.4 µM (inactive) | 29.2 µM (inactive) | 6.9 µM (inactive) | 2.35 µM (inactive) | 0.64 µM (active) | 7.85 µM (inactive) | 11.6 µM (inactive) | – |
| Oc1ccncc1-c1cnccc1O | > 100 µM (inactive) | > 100 µM (inactive) | > 100 µM (inactive) | – | > 100 µM (inactive) | > 100 µM (inactive) | > 100 µM | > 100 µM (inactive) | – | – | – | – | > 100 µM (inactive) | > 100 µM (inactive) | > 100 µM (inactive) | > 100 µM (inactive) | > 100 µM (inactive) | – | > 100 µM (inactive) | > 100 µM (inactive) |
| CC1OC(OC2C(O)COC(OC3C(C)OC(OC4C(OC(=O)[C@]56CCC(C)(C)C[C@@H]5C5=CCC7[C@@]8(C)C[C@H](O)[C@H](OC9OC(CO)C(O)C(OC%10OC(CO)C(O)C(O)C%10O)C9O)[C@@](C)(CO)[C@@H]8CC[C@@]7(C)[C@]5(C)CC6)OCC(O)C4O)C(O)C3OC3OCC(O)C(O)C3O)C2O)C(O)C(O)C1O (stereo partly specified) | 5.53 µM (inactive) | 5.41 µM (inactive) | 1.92 µM (inactive) | 7.1 µM (inactive) | 7.05 µM (inactive) | 11.3 µM (inactive) | 13.5 µM | 18.7 µM (inactive) | 15.2 µM (inactive) | 2.87 µM (inactive) | 7.43 µM (inactive) | 4.36 µM (inactive) | 13.9 µM (inactive) | 2.27 µM (inactive) | 4.45 µM (inactive) | 2 µM (inactive) | 16 µM (inactive) | 7.08 µM (inactive) | 6.35 µM (inactive) | – |
| CN(C)C(=S)N1C(=S)N(c2ccccc2)C(=N/c2ccccc2)/C1=N\c1ccccc1 | > 100 µM (inactive) | > 100 µM (inactive) | > 100 µM (inactive) | > 100 µM (inactive) | > 100 µM (inactive) | > 100 µM (inactive) | > 100 µM | > 100 µM (inactive) | > 100 µM (inactive) | > 100 µM (inactive) | > 100 µM (inactive) | > 100 µM (inactive) | > 100 µM (inactive) | > 100 µM (inactive) | > 100 µM (inactive) | > 100 µM (inactive) | > 100 µM (inactive) | > 100 µM (inactive) | > 100 µM (inactive) | – |
| CC1OC(OC2C(O)COC(OC3C(C)OC(OC4C(OC(=O)[C@]56CCC(C)(C)C[C@@H]5C5=CCC7[C@@]8(C)C[C@H](O)[C@H](OC9OC(CO)C(O)C(OC%10OC(CO)C(O)C(O)C%10O)C9O)[C@@](C)(CO)[C@@H]8CC[C@@]7(C)[C@]5(C)CC6)OCC(O)C4O)C(O)C3O)C2O)C(O)C(O)C1O (stereo partly specified) | 16.1 µM (inactive) | 17.7 µM (inactive) | 5.15 µM (inactive) | 14.6 µM (inactive) | 12.8 µM (inactive) | 17.7 µM (inactive) | 19.7 µM | 17.2 µM (inactive) | 19.5 µM (inactive) | 17.1 µM (inactive) | 12.2 µM (inactive) | 11 µM (inactive) | 18.3 µM (inactive) | 8.75 µM (inactive) | 16 µM (inactive) | 10.6 µM (inactive) | 18.9 µM (inactive) | 13.1 µM (inactive) | 14.5 µM (inactive) | – |
| C#C[C@]1(O)CC[C@H]2[C@@H]3CCC4=C/C(=N/OC(=O)c5cccc6c(=O)c7ccccc7[nH]c56)CCC4[C@H]3CC[C@@]21CC (stereo partly specified) | 4.91 µM (inactive) | 26.2 µM (inactive) | 37.2 µM (inactive) | 55.2 µM (inactive) | 22.2 µM (inactive) | 25 µM (inactive) | 13.4 µM | 8.28 µM (inactive) | > 100 µM (inactive) | 26.4 µM (inactive) | > 100 µM (inactive) | 18.5 µM (inactive) | 1.37 µM (inactive) | 22 µM (inactive) | 14.9 µM (inactive) | 39.6 µM (inactive) | 9.18 µM (inactive) | 3.25 µM (inactive) | 24 µM (inactive) | – |
| Cc1cc(C)cc(NC(=O)CCC(=O)C2CCC/C2=N\NC(=O)C(=O)NN)c1 (stereo unspecified) | > 100 µM (inactive) | > 100 µM (inactive) | > 100 µM (inactive) | – | > 100 µM (inactive) | > 100 µM (inactive) | > 100 µM | > 100 µM (inactive) | – | – | > 100 µM (inactive) | – | > 100 µM (inactive) | > 100 µM (inactive) | > 100 µM (inactive) | > 100 µM (inactive) | > 100 µM (inactive) | – | > 100 µM (inactive) | > 100 µM (inactive) |
| N#CC1=C(O)NC(O)=C(C#N)C1c1ccc(C2C(C#N)=C(O)NC(O)=C2C#N)cc1 | > 100 µM (inactive) | > 100 µM (inactive) | 26.8 µM (inactive) | – | > 100 µM (inactive) | > 100 µM (inactive) | 50.8 µM | > 100 µM (inactive) | – | – | – | – | > 100 µM (inactive) | > 100 µM (inactive) | > 100 µM (inactive) | 46.5 µM (inactive) | > 100 µM (inactive) | – | > 100 µM (inactive) | > 100 µM (inactive) |
| C=CCOC(=O)N1c2ccc(O)cc2[C@@]23O[C@@]24[C@@H]1C#C/C=C\C#C[C@]3(O)C(OC)(OC)C[C@@H]4C | 22.2 µM (inactive) | 17.7 µM (inactive) | 19.1 µM (inactive) | 46.6 µM (inactive) | 53.2 µM (inactive) | 35.2 µM (inactive) | 44.2 µM | 21.7 µM (inactive) | 37.8 µM (inactive) | 28.8 µM (inactive) | 75.9 µM (inactive) | 24 µM (inactive) | 34.4 µM (inactive) | 45.1 µM (inactive) | 13.8 µM (inactive) | 23.8 µM (inactive) | 12.1 µM (inactive) | 24.2 µM (inactive) | 52.2 µM (inactive) | – |
| Cc1cc(C)nc(NS(=O)(=O)c2ccc(Nc3c4ccccc4nc4ccc(C(=O)Nc5ccc(S(N)(=O)=O)cc5)cc34)cc2)n1 | > 100 µM (inactive) | > 100 µM (inactive) | > 100 µM (inactive) | > 100 µM (inactive) | > 100 µM (inactive) | > 100 µM (inactive) | > 100 µM | > 100 µM (inactive) | > 100 µM (inactive) | > 100 µM (inactive) | > 100 µM (inactive) | > 100 µM (inactive) | 77.4 µM (inactive) | > 100 µM (inactive) | 72.6 µM (inactive) | > 100 µM (inactive) | > 100 µM (inactive) | > 100 µM (inactive) | > 100 µM (inactive) | – |
| C[C@H](CCC(=O)O)[C@H]1CC[C@@]2(C)[C@@H]3C(=O)C[C@H]4C(C)(C)[C@@H](O)CC[C@]4(C)[C@H]3C(=O)C[C@]12C | > 100 µM (inactive) | > 100 µM (inactive) | > 100 µM (inactive) | > 100 µM (inactive) | > 100 µM (inactive) | > 100 µM (inactive) | > 100 µM | > 100 µM (inactive) | 41.8 µM (inactive) | > 100 µM (inactive) | > 100 µM (inactive) | > 100 µM (inactive) | > 100 µM (inactive) | > 100 µM (inactive) | > 100 µM (inactive) | > 100 µM (inactive) | > 100 µM (inactive) | > 100 µM (inactive) | > 100 µM (inactive) | – |
| NS(=O)(=O)c1ccc(/N=N/c2nc3[nH]cnc(=S)c3[nH]2)cc1 | 0.507 µM (active) | 3.1 µM (inactive) | 2.43 µM (inactive) | 0.638 µM (active) | 2.21 µM (inactive) | 0.568 µM (active) | 2.09 µM | 1.34 µM (inactive) | 6.41 µM (inactive) | 0.684 µM (active) | 0.759 µM (active) | 3.73 µM (inactive) | 0.31 µM (active) | 10.6 µM (inactive) | 5.36 µM (inactive) | 1.87 µM (inactive) | 2.05 µM (inactive) | 0.0803 µM (active) | 2.29 µM (inactive) | – |
| O=[N+]([O-])c1ccc(/C=C/c2csnn2)cc1 | > 100 µM (inactive) | > 100 µM (inactive) | – | – | > 100 µM (inactive) | > 100 µM (inactive) | > 100 µM | > 100 µM (inactive) | – | – | > 100 µM (inactive) | – | > 100 µM (inactive) | > 100 µM (inactive) | > 100 µM (inactive) | > 100 µM (inactive) | – | – | > 100 µM (inactive) | > 100 µM (inactive) |
| O=C(/C=C/c1ccccc1)c1cc(CN2CCOCC2)c(O)c(CN2CCOCC2)c1 | 9.42 µM (inactive) | 2.32 µM (inactive) | 11.3 µM (inactive) | 16 µM (inactive) | 25.3 µM (inactive) | 12.6 µM (inactive) | 7.5 µM | 17.4 µM (inactive) | 35.6 µM (inactive) | 19.7 µM (inactive) | 14.6 µM (inactive) | 19.2 µM (inactive) | 4.55 µM (inactive) | 14.5 µM (inactive) | 13.1 µM (inactive) | 11.9 µM (inactive) | 19.3 µM (inactive) | 5.51 µM (inactive) | 12.3 µM (inactive) | – |
